Reference: publication PMC3724850, “A Scallop Nitric Oxide Synthase (NOS) with Structure Similar to Neuronal NOS and Its Involvement in the Immune Defense” (PLoS ONE, 2013)

Target: T1, CfNOS (native) (Azumapecten farreri, UniProt S4UD24)
T1 construct: gene NOS; immunoprecipitated from scallop haemocyte lysate with rat polyclonal antibody to rCfNOS, Protein G column
T1 sequence (S4UD24 1-1486): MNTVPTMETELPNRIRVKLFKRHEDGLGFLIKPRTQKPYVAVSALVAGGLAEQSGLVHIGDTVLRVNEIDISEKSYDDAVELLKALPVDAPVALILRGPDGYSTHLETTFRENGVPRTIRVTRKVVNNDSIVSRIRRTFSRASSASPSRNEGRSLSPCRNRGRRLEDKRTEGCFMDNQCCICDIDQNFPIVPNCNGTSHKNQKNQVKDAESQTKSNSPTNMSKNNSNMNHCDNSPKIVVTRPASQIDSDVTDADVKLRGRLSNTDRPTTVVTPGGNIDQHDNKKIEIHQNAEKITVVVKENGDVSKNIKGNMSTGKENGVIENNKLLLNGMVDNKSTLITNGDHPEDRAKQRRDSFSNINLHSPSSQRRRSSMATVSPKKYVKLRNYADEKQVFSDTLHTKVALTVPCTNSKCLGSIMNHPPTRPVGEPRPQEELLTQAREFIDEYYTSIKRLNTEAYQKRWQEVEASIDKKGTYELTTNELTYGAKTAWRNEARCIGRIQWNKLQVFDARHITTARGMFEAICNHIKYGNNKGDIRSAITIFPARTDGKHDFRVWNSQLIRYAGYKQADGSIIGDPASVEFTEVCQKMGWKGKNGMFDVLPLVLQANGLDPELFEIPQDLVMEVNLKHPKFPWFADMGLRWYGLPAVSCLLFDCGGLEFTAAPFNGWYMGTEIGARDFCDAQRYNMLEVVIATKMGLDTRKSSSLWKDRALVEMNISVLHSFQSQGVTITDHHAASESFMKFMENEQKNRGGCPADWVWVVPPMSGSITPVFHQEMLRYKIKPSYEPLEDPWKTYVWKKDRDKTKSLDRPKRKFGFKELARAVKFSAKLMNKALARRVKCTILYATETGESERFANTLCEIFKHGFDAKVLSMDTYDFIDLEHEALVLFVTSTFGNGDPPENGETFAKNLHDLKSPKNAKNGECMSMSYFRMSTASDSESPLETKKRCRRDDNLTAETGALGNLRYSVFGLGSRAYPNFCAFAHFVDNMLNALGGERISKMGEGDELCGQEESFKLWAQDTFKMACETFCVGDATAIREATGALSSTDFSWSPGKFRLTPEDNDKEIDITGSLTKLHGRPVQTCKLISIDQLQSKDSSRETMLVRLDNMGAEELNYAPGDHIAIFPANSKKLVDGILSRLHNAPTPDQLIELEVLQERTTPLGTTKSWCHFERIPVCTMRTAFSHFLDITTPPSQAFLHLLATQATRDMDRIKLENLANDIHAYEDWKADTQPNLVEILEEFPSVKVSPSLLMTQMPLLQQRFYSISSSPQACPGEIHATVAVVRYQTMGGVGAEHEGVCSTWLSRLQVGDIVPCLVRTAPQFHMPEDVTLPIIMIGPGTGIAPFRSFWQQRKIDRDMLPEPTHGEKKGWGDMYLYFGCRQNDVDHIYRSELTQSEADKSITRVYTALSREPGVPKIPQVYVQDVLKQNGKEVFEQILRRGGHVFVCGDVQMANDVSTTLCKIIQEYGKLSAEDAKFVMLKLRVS
Assay: NOS activity by total NOS detection kit (absorbance […] nm)
Assay type: biochemical
Settings: no inhibitor; immunoprecipitated native enzyme

N=C(N)NCCC[C@H](N)C(=O)O [L-Arginine]
NOS activity by total NOS detection kit (absorbance 530 nm): measuring the NO production using L-Arginine as the substrate
